Four compounds from patent US8029984B2, “Materials and methods for colorectal cancer screening, diagnosis and therapy” (Licentia, Ltd., priority 2003, dated 2011) can be followed below.

Holding throughout (assay type): cell-based, human
The test system of series [1] is SW480R cells. Briefly: Treatment of SW480R cells with inhibitor of DNA methyltransferases. The source says: (§1) DNA methylation is frequently abnormal in colorectal cancer, and it was reported recently that Prox-1 expression is suppressed in human hematological cell lines due to hypermethylation of CpG islands in intron 1 of Prox-1 (Nagai, H. et al., Genes Chromosomes Cancer 38, 13-21 (2003)).

In a further series the test system is SW480A cells. Briefly: Treatment of SW480A cells with inhibitor of DNA methyltransferases.
From the text: as §1

The subject of series [2] is SW480R cells. The experiment in a line: BrdU incorporation in siRNA transfected SW480R cells. How it is done:
Transfection of siRNAs was carried out using lipofectamine 2000 (Invitrogen) according to manufacturer's instructions using 0.5% (v/v) lipofectamine 2000 reagent for SW480R and 0.4% (v/v) lipofectamine 2000 for adherent SW480 cells and either 2 nM or 100 nM (f.c.) of siRNA. Transfections were carried out in antibiotic-free media for 4-6 hours before changing cells back to normal culture media. For long-term experiments siRNA transfections were repeated after 48-72 h from previous transfection (at protein level the silencing effect was seen to remain efficient for at least 96 h). Normally approximately 90-95% transfection efficiency was achieved. Opti-MEM (Invitrogen) medium was used in preparation of transfection mixtures.
Experiments were conducted to investigate whether Prox-1 plays role in the generation and maintenance of the highly transformed phenotype. Prox-1 mRNA and protein in the SW480R cells was suppressed using Prox-1 targeting siRNA. […] Eventually the Prox-1 siRNA cells started to spread on the plate and a number of increased actin stress fibers could be visualized by phalloidine staining.
(In general: Incorporation of labelled thymidine or its analogues reports DNA synthesis.)

Series [3] has as its system SW480R cells. Briefly: Soft agar assay (anchorage-independent growth). The conditions noted are these: transfected repeatedly over 8 days, two weeks of growth. On the procedure: FIG. 3 depicts the efficacy of Prox-1 suppression for inhibiting SW480R cell growth in soft agar. SW480R cells were transfected with GFP siPRNA, Prox-1 siRNA A16 or Prox-1 siRNA A25 or left untreated, and seeded in soft agar in triplicate. The number of colonies was scored after two weeks of growth.
For soft agar assay, 2×10^3 and 2×10^4 cells were seeded in triplicate in 1 ml of 0.33% (w/v) agar (Difco) containing D-MEM, 10% fetal bovine serum, 1 mM glutamine and antibiotics in 6-well plates containing 1 ml of 0.5% bottom agar layer. Cells were fed twice a week, and number of colonies per plate was scored after two weeks in culture.
Since anchorage-independent growth is one of the hallmarks of malignant transformation, experiments were conducted to assess the effects of Prox-1 suppression on the growth of SW480R cells in soft agar. SW480R cells were transfected with GFP siPRNA, Prox-1 siRNA A16 or Prox-1 siRNA A25 repeatedly over an 8-day period, or left untreated, and seeded in soft agar in triplicate. The number of colonies was scored after two weeks of growth.

As for `Nc1ncn([C@H]2C[C@H](O)[C@@H](CO)O2)c(=O)n1` [5-aza-2′-deoxycytidine], the Prox-1 expression result in the series on SW480R cells [1] is “almost completely suppressed”. Moreover, in the series with SW480A cells, the “Prox-1 mRNA” value is given as “did not result in the increase” and the “expression of TIMP3” value is “increase”.

For “Prox-1 siRNA A16: siRNA duplex, sense 5′-CUGCAAGCUGGAUAGUGAAGU-3′ (SEQ ID NO: 4), antisense 5′-UUCACUAUCCAGCUUGCAGAU-3′ (SEQ ID NO: 5) (RNA, backbone not given here; listed as Homo sapiens)”, in the series on SW480R cells [2], the BrdU positive cells is on record as 22±0.5%. Moreover, the “number of colonies formed in soft agar” value with SW480R cells [3] is reported as “significantly decreased”.

“Prox-1 siRNA A25: siRNA duplex, sense 5′-CUAUGAGCCAGUUUGAUAUUU-3′ (SEQ ID NO: 6), antisense 5′-AUAUCAAACUGGCUCAUAGUU-3′ (SEQ ID NO: 7) (RNA, backbone not given here; listed as Homo sapiens)” showed a BrdU positive cells in the series with SW480R cells [2] of 18±1%. Besides, the “number of colonies formed in soft agar” value in the series on SW480R cells [3] was “significantly decreased”.

“GFP siRNA: control siRNA, sense GACGUAAACGGCCACAAGUUU (SEQ ID NO: 8), antisense ACUUGUGGCCGUUUACGUCUU (SEQ ID NO: 9) (listed as RNA, chemistry not given here; listed as Homo sapiens)” yielded a BrdU positive cells in the series on SW480R cells [2] of 34±4%.
